Measured values reported in PMC10108200, “Reaction Pathways for the Enzymatic Degradation of Poly(Ethylene Terephthalate): What Characterizes an Efficient PET‐Hydrolase?” (Chembiochem, 2022).

Biological target: T1, IsP (Pseudideonella sakaiensis, UniProt A0A0K8P6T7)
T1 construct: gene ISF6_4831; heterologously expressed and purified
Experiment: initial rates by RP-HPLC, Michaelis-Menten fit
Format: biochemical
Conditions: 50 °C, 10 min, 0-2 mM substrate, 0.01-0.5 μM enzyme
Description: initial rates by RP-HPLC, Michaelis-Menten fit on IsP

T1 sequence (A0A0K8P6T7 28-290): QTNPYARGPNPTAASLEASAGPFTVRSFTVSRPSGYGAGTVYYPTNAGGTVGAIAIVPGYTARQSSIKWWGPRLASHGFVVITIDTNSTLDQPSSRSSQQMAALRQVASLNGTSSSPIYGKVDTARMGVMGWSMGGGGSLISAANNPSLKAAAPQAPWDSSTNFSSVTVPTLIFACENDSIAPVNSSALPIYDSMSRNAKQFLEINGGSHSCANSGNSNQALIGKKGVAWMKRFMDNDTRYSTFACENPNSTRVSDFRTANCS

Structure (SMILES) | Km [µM]
O=C(O)c1ccc(C(=O)OCCOC(=O)c2ccc(C(=O)OCCOC(=O)c3ccc(C(=O)O)cc3)cc2)cc1 [TETET] | 58 ± 29
O=C(O)c1ccc(C(=O)OCCOC(=O)c2ccc(C(=O)OCCO)cc2)cc1 [TETE] | 140 ± 36
